These results are taken from patent US20220267352A1, “RAPAMYCIN ANALOGS AND USES THEREOF” (Anakuria Therapeutics, Inc., priority 2021, published 2022).

Type in all cases: cell-based
The subject of test [1] is p-p70 S6 Kinase (Thr389) in MCF-7 cells. The test can be described thus: AlphaLISA Ultra pS6K1 assay. As to conditions: Homo sapiens, 1.5 h; MCF7 cells, 90 min. On the procedure: Example 55: AlphaLISA Ultra pS6K1 Assay
(§1) Assay Protocol: • 1. Seed MCF-7 cells in Corning 3701 plate and incubate for 20˜24 hour. 12,000˜16,000 cells will be seeded in 36 μL medium per well. • 2. Change the culture medium with fresh medium and incubate for another 2 hours. • 3. Add 12 μL (4×) compounds into the cell plate by HAMILTON. Final DMSO concentration is 0.5%. Incubate for 90 minutes. • 4. Aspirate 38 μL by HAMILTON, 10 μL rest per well. • 5. Add 10 μL 2× lysis buffer using HAMILTON; total volume in wells is 20 μL. Allow cells to shake for 30 min. Cover plate by plastic foil and store plate at −80° C. up to analysis. • 6. Thaw cell lysate at RT and transfer 10 μL lysate to assay plate (Optiplate-384). • 7. Add 5 μL acceptor beads into assay plate and incubation for 2 hours • 8. Add 5 μL donor beads and incubation for 2 hours • 9. Count the plate by EnSpire Multimode Plate Reader

Test [2] has as its system p-Akt 1/2/3 (Ser473) in MCF-7 cells. The test can be described thus: AlphaLISA Ultra pAKT assay. As to conditions: Homo sapiens, 1.5 h; MCF7 cells, 90 min. Here is the method:
Example 56: AlphaLISA Ultra pAKT Assay
as §1, with “1.” for “1. Seed”, “16,000˜20,000” for “12,000˜16,000”, “90 minutes.” for “2 hours.”, “Incubate for 90 minutes. • 4.” left out

The next test concerns mTORC1 over mTORC2. The test can be described thus: mTORC1 over mTORC2 selectivity by comparing pS6K1 and pAKT IC50. To be noted: by comparing pS6K1 and pAKT IC50, 90 min. On the procedure: as §1, with “Reader […]” for “Reader”
Compounds that are not selective by comparing pS6K1 and pAKT IC50 by kinase assays are indicated by “NO” in the “mTORC1 selective @ 90 min” column of Table 4. […] Compounds that are not selective at the 24 hrs mark are indicated by “NO” in the “mTORC1 selective @ 24 hrs” column of Table 4. “N/A” stands for “not assayed” and “N/C” stands for “not calculated”.

Where only a bound is given, the exact number is not on record here.

As for `CO[C@@H]1C[C@H](C[C@@H](C)[C@@H]2CC(=O)[C@H](C)/C=C(\C)[C@@H](O)[C@@H](OC)C(=O)[C@H](C)C[C@H](C)/C=C/C=C/C=C(\C)[C@@H](OCCOC3COC3)C[C@@H]3CC[C@@H](C)[C@@](O)(O3)C(=O)C(=O)N3CCCC[C@H]3C(=O)O2)CC[C@H]1OC(F)F` [I-105, (23E,25E,27E,28E,32R,33S,34R,35R,37S,39S,41S,42S,44R,45R,55R)-42-[(1R)-2-[(1S,3R,4R)-4-(difluoromethoxy)-3-methoxy-cyclohexyl]-1-methyl-ethyl]-44,55-dihydroxy-45-methoxy-32,33,34,35,46,47-hexamethyl-41-[2-(oxetan-3-yloxy)ethoxy]-65,66-dioxa-56-azatricyclohexatriaconta-23,25,27(46),28(47)-tetraene-48,49,50,51,52-pentone], the IC50 in test [1] was 1 to 10 nM; in test [2] it was no less than 1000 nM. In addition, the “mTORC1 selective @ 90 min” value in the test with mTORC1 over mTORC2 was “Yes”.

As for `CO[C@@H]1C[C@H](C[C@@H](C)[C@@H]2CC(=O)[C@H](C)/C=C(\C)[C@@H](O)[C@@H](OC)C(=O)[C@H](C)C[C@H](C)/C=C/C=C/C=C(\C)C(OCCOC3COC3)C[C@@H]3CC[C@@H](C)[C@@](O)(O3)C(=O)C(=O)N3CCCC[C@H]3C(=O)O2)CC[C@H]1OCCCN1CCN(C)CC1` (stereo partly drawn) [I-15, (28E,30E,32E,33E,40R,41S,42R,43R,45S,47S,50S,52R,53R,62R)-52,62-dihydroxy-53-methoxy-50-[(1R)-2-[(1S,3R,4R)-3-methoxy-4-[3-(4-methylpiperazin-1-yl)propoxy]cyclohexyl]-1-methyl-ethyl]-40,41,42,43,54,55-hexamethyl-49-[2-(oxetan-3-yloxy)ethoxy]-74,75-dioxa-65-azatricyclohexatriaconta-28,30,32(54),33(55)-tetraene-56,57,58,59,60-pentone], the half-maximal inhibitory concentration (IC50) in test [1] was 1 to 10 nM; in test [2] it was no less than 1000 nM. Moreover, the “mTORC1 selective @ 90 min” value with mTORC1 over mTORC2 was “Yes”.

Turning to `CO[C@@H]1C[C@H](C[C@@H](C)[C@@H]2CC(=O)[C@H](C)/C=C(\C)[C@@H](O)[C@@H](OC)C(=O)[C@H](C)C[C@H](C)/C=C/C=C/C=C(\C)[C@H](OCCOC3COC3)C[C@@H]3CC[C@@H](C)[C@@](O)(O3)C(=O)C(=O)N3CCCC[C@H]3C(=O)O2)CC[C@H]1OC(=O)NCCN1CCOCC1` [I-20, [(42S,44R,46R)-4-[(2R)-2-[(27E,29E,31E,32E,38R,39S,40R,41R,43S,45S,47R,48S,50R,51R,61R)-50,61-dihydroxy-51-methoxy-38,39,40,41,52,53-hexamethyl-47-[2-(oxetan-3-yloxy)ethoxy]-54,55,56,57,58-pentaoxo-75,76-dioxa-64-azatricyclohexatriaconta-27,29,31(52),32(53)-tetraen-48-yl]propyl]-46-methoxy-44-cyclohexyl] N-(2-morpholinoethyl)carbamate], the values for the IC50 in test [1] and in test [2] were 1 to 10 nM and no less than 1000 nM, respectively. Moreover, in the test with mTORC1 over mTORC2, the “mTORC1 selective @ 90 min” value is on record as “Yes”.

Take `CO[C@@H]1C[C@H](C[C@@H](C)[C@@H]2CC(=O)[C@H](C)/C=C(\C)[C@@H](O)[C@@H](OC)C(=O)[C@H](C)C[C@H](C)/C=C/C=C/C=C(\C)C(OCC3COCCO3)C[C@@H]3CC[C@@H](C)[C@@](O)(O3)C(=O)C(=O)N3CCCC[C@H]3C(=O)O2)CC[C@H]1OCCCN1CCOCC1` (stereo partly drawn) [I-12, (28E,30E,32E,33E,39R,40S,41R,42R,44S,46S,49S,51R,52R,61R)-48-(1,4-dioxan-2-ylmethoxy)-51,61-dihydroxy-52-methoxy-49-[(1R)-2-[(1S,3R,4R)-3-methoxy-4-(3-morpholinopropoxy)cyclohexyl]-1-methyl-ethyl]-39,40,41,42,53,54-hexamethyl-74,75-dioxa-63-azatricyclohexatriaconta-28,30,32(53),33(54)-tetraene-55,56,57,58,59-pentone]: the half-inhibitory concentration (IC50) in test [1] is less than 1 nM; in test [2], no less than 1000 nM. In addition, the “mTORC1 selective @ 90 min” value in the test on mTORC1 over mTORC2 was “Yes”.

As for `CO[C@@H]1C[C@H](C[C@@H](C)[C@@H]2CC(=O)[C@H](C)/C=C(\C)[C@@H](O)[C@@H](OC)C(=O)[C@H](C)C[C@H](C)/C=C/C=C/C=C(\C)[C@H](OCCOC3COC3)C[C@@H]3CC[C@@H](C)[C@@](O)(O3)C(=O)C(=O)N3CCCC[C@H]3C(=O)O2)CC[C@H]1OC(F)F` [I-104, (23E,25E,27E,28E,32R,33S,34R,35R,37S,39S,41R,42S,44R,45R,55R)-42-[(1R)-2-[(1S,3R,4R)-4-(difluoromethoxy)-3-methoxy-cyclohexyl]-1-methyl-ethyl]-44,55-dihydroxy-45-methoxy-32,33,34,35,46,47-hexamethyl-41-[2-(oxetan-3-yloxy)ethoxy]-65,66-dioxa-56-azatricyclohexatriaconta-23,25,27(46),28(47)-tetraene-48,49,50,51,52-pentone], the figures for the 50% inhibitory concentration (IC50) in test [1] and in test [2] were 10 to 100 nM and no less than 1000 nM, respectively. Also, the “mTORC1 selective @ 90 min” value in the test with mTORC1 over mTORC2 is reported as “Yes”.

For the compound `CO[C@@H]1/C(C)=C/[C@@H](C)C(=O)C[C@@H]([C@H](C)C[C@@H]2CC[C@@H](OCCO)[C@H](OC)C2)OC(=O)[C@@H]2CCCCN2C(=O)C(=O)[C@]2(O)O[C@@H](CC[C@H]2C)CC(OCCOCCOC2COC2)/C(C)=C/C=C/C=C/[C@@H](C)C[C@@H](C)C(=O)[C@@H]1OC` (stereo partly drawn) [I-80, (1R,9S,12S,15R,16E,18R,19R,21R,23S,24E,26E,28E,32S,35R)-1-hydroxy-12-[(1R)-2-[(1S,3R,4R)-4-(2-hydroxyethoxy)-3-methoxy-cyclohexyl]-1-methyl-ethyl]-18,19-dimethoxy-15,17,21,23,29,35-hexamethyl-30-[2-[2-(oxetan-3-yloxy)ethoxy]ethoxy]-11,36-dioxa-4-azatricyclo[30.3.1.0^4,9]hexatriaconta-16,24,26,28-tetraene-2,3,10,14,20-pentone], the IC50 was 10 to 100 nM in test [1] and no less than 1000 nM in test [2]. In addition, the “mTORC1 selective @ 90 min” value in the test on mTORC1 over mTORC2 was “Yes”.

As for `CO[C@@H]1/C(C)=C/[C@@H](C)C(=O)C[C@@H]([C@H](C)C[C@@H]2CC[C@@H](OC)[C@H](OC)C2)OC(=O)[C@@H]2CCCCN2C(=O)C(=O)[C@]2(O)O[C@@H](CC[C@H]2C)C[C@@H](OCC2COCCO2)/C(C)=C/C=C/C=C/[C@@H](C)C[C@@H](C)C(=O)[C@@H]1OC` (stereo partly drawn) [I-39, (26E,28E,30E,31E,34R,35S,36R,37R,39S,41S,43R,44S,46R,47R,56R)-44-[(1R)-2-[(1S,3R,4R)-3,4-dimethoxycyclohexyl]-1-methyl-ethyl]-43-(1,4-dioxan-2-ylmethoxy)-56-hydroxy-46,47-dimethoxy-34,35,36,37,48,49-hexamethyl-66,67-dioxa-57-azatricyclohexatriaconta-26,28,30(48),31(49)-tetraene-50,51,52,53,54-pentone], the IC50 in test [1] is 100 to 1000 nM; in test [2], no less than 1000 nM. Further, the “mTORC1 selective @ 90 min” value in the test with mTORC1 over mTORC2 was “Yes”.

`CO[C@@H]1C[C@H](C[C@@H](C)[C@@H]2CC(=O)[C@H](C)/C=C(\C)[C@@H](O)[C@@H](OC)C(=O)[C@H](C)C[C@H](C)/C=C/C=C/C=C(\C)[C@H](OCCOC3COC3)C[C@@H]3CC[C@@H](C)[C@@](O)(O3)C(=O)C(=O)N3CCCC[C@H]3C(=O)O2)CC[C@H]1OCCCN1C[C@@H](C)O[C@@H](C)C1` [I-100, (27E,29E,31E,32E,39R,40S,41R,44R,46S,48S,50R,51S,53R,54R,63R)-51-[(1R)-2-[(1S,3R,4R)-4-[3-[(2S,6R)-2,6-dimethylmorpholin-4-yl]propoxy]-3-methoxy-cyclohexyl]-1-methyl-ethyl]-53,63-dihydroxy-54-methoxy-39,40,41,44,55,56-hexamethyl-50-[2-(oxetan-3-yloxy)ethoxy]-75,76-dioxa-64-azatricyclohexatriaconta-27,29,31(55),32(56)-tetraene-57,58,59,60,61-pentone]: the IC50 in test [1] was 1 to 10 nM; in test [2], no less than 1000 nM. In addition, the “mTORC1 selective @ 90 min” value with mTORC1 over mTORC2 is given as “Yes”.

What is called IC50 is the concentration that inhibits the measured activity by half.
